From paper PMC4393779 (Journal of neurochemistry, 2015)
Where two headings read alike, the source gives them in different places.

Assays:
[1] = tested on: DAT; settings: intact cells; ref Chen et al., 2004b; cited from earlier work
[2] = tested on: WT + D436N hDAT (co-expressed); format: binding, human; settings: transiently co-transfected 1:1, WT + D436N, observed
[3] = biological target: T1, WT hDAT (Homo sapiens, UniProt Q01959); settings: transiently singly transfected, observed, mean ± SE
[4] = biological target: T2, W84L hDAT (Homo sapiens, UniProt Q01959, W84L); settings: stably expressing cells, observed, mean ± SE
T2 sequence (Q01959 1-620 W84L): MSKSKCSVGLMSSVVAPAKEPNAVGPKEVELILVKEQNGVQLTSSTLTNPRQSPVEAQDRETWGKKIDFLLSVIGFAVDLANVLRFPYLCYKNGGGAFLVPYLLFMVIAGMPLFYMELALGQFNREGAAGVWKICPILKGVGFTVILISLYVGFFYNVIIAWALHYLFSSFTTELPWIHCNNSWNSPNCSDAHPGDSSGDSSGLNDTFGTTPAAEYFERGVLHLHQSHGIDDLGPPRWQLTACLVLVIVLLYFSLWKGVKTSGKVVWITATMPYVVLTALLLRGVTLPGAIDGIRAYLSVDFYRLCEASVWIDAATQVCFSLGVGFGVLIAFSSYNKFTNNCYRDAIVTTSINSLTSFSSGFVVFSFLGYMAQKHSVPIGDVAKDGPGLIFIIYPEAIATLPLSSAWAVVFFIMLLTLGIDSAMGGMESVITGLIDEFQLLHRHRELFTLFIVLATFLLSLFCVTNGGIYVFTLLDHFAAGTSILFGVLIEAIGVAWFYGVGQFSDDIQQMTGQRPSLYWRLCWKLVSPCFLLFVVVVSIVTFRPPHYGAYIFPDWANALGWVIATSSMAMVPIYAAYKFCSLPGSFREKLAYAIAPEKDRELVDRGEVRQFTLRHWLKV

[5] = tested on: W84L + D345N hDAT (co-expressed); format: binding, human; settings: transiently co-transfected 1:1, W84L + D345N, observed
[6] = tested on: WT + D313N hDAT (co-expressed); format: binding, human; settings: transiently co-transfected 1:1, WT + D313N, observed
[7] = biological target: T3, D345N hDAT (Homo sapiens, UniProt Q01959, D345N); test: [3H]CFT saturation binding, HEK-293 cells transiently transfected with D345N DAT; settings: transiently singly transfected
T3 sequence (Q01959 whole entry D345N): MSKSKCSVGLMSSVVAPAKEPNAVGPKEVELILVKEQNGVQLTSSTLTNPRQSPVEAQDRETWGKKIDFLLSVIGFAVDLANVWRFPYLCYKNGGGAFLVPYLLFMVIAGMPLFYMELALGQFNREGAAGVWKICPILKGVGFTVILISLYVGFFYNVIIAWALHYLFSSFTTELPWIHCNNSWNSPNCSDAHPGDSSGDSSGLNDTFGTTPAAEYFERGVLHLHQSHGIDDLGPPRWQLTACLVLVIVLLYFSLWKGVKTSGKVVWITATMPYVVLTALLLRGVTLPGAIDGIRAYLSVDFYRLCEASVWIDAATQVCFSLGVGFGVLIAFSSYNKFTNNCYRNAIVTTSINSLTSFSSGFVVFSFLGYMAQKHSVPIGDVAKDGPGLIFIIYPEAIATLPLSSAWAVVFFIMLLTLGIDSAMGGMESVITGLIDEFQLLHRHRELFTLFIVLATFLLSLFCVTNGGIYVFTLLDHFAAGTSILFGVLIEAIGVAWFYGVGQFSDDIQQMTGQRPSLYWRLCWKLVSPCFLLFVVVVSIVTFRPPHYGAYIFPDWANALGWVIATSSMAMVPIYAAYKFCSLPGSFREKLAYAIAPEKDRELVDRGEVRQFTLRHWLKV

[8] = biological target: D313N hDAT (Homo sapiens, UniProt Q01959, D313N); test: [3H]CFT saturation binding, HEK-293 cells transiently transfected with D313N DAT; settings: transiently singly transfected
D313N hDAT, sequence (Q01959 whole entry D313N): as the sequence (Q01959 whole entry D345N) above, with D313N, N345D counted along it

[9] = tested on: WT + W84L hDAT (mixed cells); test: [3H]CFT saturation binding, mixed cells singly stably expressing WT and W84L DAT; parameters: species or system human; settings: observed upon mixing stable cells in equal volumes
[10] = tested on: WT + D436N hDAT (mixed cells); format: binding, human; settings: observed upon mixing stable cells in equal volumes
[11] = biological target: T4, D436N hDAT (Homo sapiens, UniProt Q01959, D436N); test: [3H]CFT saturation binding, intact HEK-293 cells stably expressing D436N DAT; settings: observed, mean ± SE
T4 sequence (Q01959 whole entry D436N): as the sequence (Q01959 whole entry D345N) above, with N345D, D436N counted along it

[12] = biological target: T4, D436N hDAT; test: [3H]CFT saturation binding, HEK-293 cells transiently transfected with D436N DAT; settings: transiently singly transfected
[13] = tested on: WT + D345N hDAT (co-expressed); format: binding, human; settings: transiently co-transfected 1:1, WT + D345N, observed
[14] = tested on: WT + W84L hDAT (co-expressed); format: binding, human; settings: transiently co-transfected 1:1, WT + W84L, observed
[15] = tested on: W84L + D345N hDAT (mixed cells); format: binding, human; settings: observed upon mixing stable cells in equal volumes
[16] = biological target: T1, WT hDAT; test: [3H]CFT saturation binding, intact HEK-293 cells stably expressing WT DAT; settings: observed, mean ± SE
[17] = biological target: T2, W84L hDAT; test: [3H]CFT saturation binding, HEK-293 cells transiently transfected with W84L DAT; settings: transiently singly transfected
[18] = biological target: T3, D345N hDAT; test: [3H]CFT saturation binding, intact HEK-293 cells stably expressing D345N DAT; settings: observed, mean ± SE

T1 sequence (Q01959 whole entry): as the sequence (Q01959 whole entry D345N) above, with N345D counted along it

Structure (SMILES)	inhibition of intact cell [3H]CFT binding [1]	Kd [2]	Bmax [3]	Bmax [4]	Kd [5]	Kd [6]	Bmax ([7]; set paired with W84L (n=6))	Bmax ([7]; set paired with WT (n=4))	Bmax [8]	Kd [9]	Kd [10]	Bmax [11]	Bmax [12]	Kd [13]	Kd [14]	Kd [15]	Bmax [16]	Bmax ([17]; set paired with D345N (n=7))	Bmax ([17]; set paired with WT (n=5))	Bmax [18]
C[n+]1ccc(-c2ccccc2)cc1 [MPP^+]	completely inhibited	–	–	–	–	–	–	–	–	–	–	–	–	–	–	–	–	–	–	–
COC(=O)[C@H]1[C@@H](c2ccc(F)cc2)C[C@@H]2CC[C@H]1N2C [[^3H]CFT, (−)-2-β-carbomethoxy-3-β-(4-fluorophenyl)tropane]	–	103 ± 5 nM	0.79 ± 0.21 (4) pmol/mg	0.75 ± 0.16 (8) pmol/mg	6.75 ± 3.22 nM	6.42 ± 1.1 nM	0.51 ± 0.12 (6) pmol/mg	0.62 ± 0.10 (4) pmol/mg	0.41± 0.03 (4) pmol/mg	5.33 ± 0.95 nM	25.9 ± 4 nM	0.50± 0.08 (4) pmol/mg	0.94 ± 0.04 (3) pmol/mg	48.2 ± 10.3 nM	4.4 ± 0.77 nM	2.01 ± 0.67 nM	0.55 ± 0.03 (6) pmol/mg	0.94 ± 0.13 (7) pmol/mg	0.82 ± 0.14 (5) pmol/mg	0.57 ± 0.13 (4) pmol/mg
